Test results published in article PMC8729770, “In Vitro Evaluation of Antimicrobial Peptides from the Black Soldier Fly (Hermetia Illucens) against a Selection of Human Pathogens” (Microbiology Spectrum, 2022).
Where two headings read alike, the source gives them in different places. Ends that are not written are not given here.

Experiments:
P. aeruginosa ATCC 9027 = assay type: cell-based, Pseudomonas aeruginosa
Procedure: (§1) To detect antimicrobial activity of the BSF AMPs, the peptide library underwent screening against a panel of microorganisms, consisting of S. aureus ATCC 6538, E. coli ATCC 8739, P. aeruginosa ATCC 9027, C. albicans B59630, and A. fumigatus B42928. Serial dilutions of the peptides were prepared from the DMSO stock solutions in sterile demineralized water in 96-well plates using an automated liquid-handling workstation (Beckman Coulter Biomek 3000) in end volumes of 10 μL. The final in-plate concentration of DMSO was <1%. Peptide concentrations ranged from 64 μM to 0.25 μM for the first evaluation, and from 32 μM to 0.016 μM for the independent repeat. As references, doxycycline (Sigma-Aldrich; S. aureus, E. coli, P. aeruginosa), flucytosine (Sigma-Aldrich; C. albicans), and econazole (Sigma-Aldrich; A. fumigatus) were used. Suspensions of a starting inoculum of 5 × 10^3 CFU/mL (E. coli, S. aureus, C. albicans, A. fumigatus) and 5 × 10^4 CFU/mL (P. aeruginosa) were prepared in MHB (bacterial species) or RPMI medium (fungal species) and 190 μL was added to the 96-well plates. Plates were incubated for 16 h (E. coli, S. aureus, P. aeruginosa), 24 h (C. albicans), or 48 h (A. fumigatus) at 37°C. After incubation, read-out of the antimicrobial activity was performed using a resazurin assay. Then, 20 μL of a 0.01% (wt/vol) resazurin (Sigma-Aldrich) solution was added to each well and plates were incubated for 15 min (S. aureus), 30 min (E. coli), 45 min (P. aeruginosa), 4 h (C. albicans), or 17 h (A. fumigatus) to allow resazurin reduction to take place. Fluorescence was read using a microplate reader (Telix) at λexcitation = 550 nm and λemission = 590. […] MIC values were determined visually. Medium in the wells with no visual growth was plated on MHA to detect the MBC, defined as ≥3 log reduction compared with the growth control.

S. aureus ATCC 6538 = assay type: cell-based, Staphylococcus aureus; conditions: determined visually, 16 h
Procedure: as §1

E. coli ATCC 8739 = assay type: cell-based, Escherichia coli; conditions: for MIC E. coli ATCC 8739: determined visually, 16 h
Procedure: as §1

[1] = repeat 1, plated on MHA, ≥3 log reduction vs growth control
[2] = repeat 2, 32-0.016 μM, determined visually, 16 h
[3] = repeat 2, plated on MHA, ≥3 log reduction vs growth control

Row | Substance | MIC P. aeruginosa ATCC 9027 (P. aeruginosa ATCC 9027; ATCC 9027, 16 h) [µM] | MBC P. aeruginosa ATCC 9027 (P. aeruginosa ATCC 9027; [1]) | MIC P. aeruginosa ATCC 9027 (P. aeruginosa ATCC 9027; [2]) [µM] | MBC P. aeruginosa ATCC 9027 (P. aeruginosa ATCC 9027; [3]) [µM] | MIC S. aureus ATCC 6538 (S. aureus ATCC 6538; repeat 1, 64-0.25 μM) [µM] | MIC S. aureus ATCC 6538 (S. aureus ATCC 6538; repeat 2, 32-0.016 μM) [µM] | MIC P. aeruginosa ATCC 9027 (P. aeruginosa ATCC 9027; repeat 1, 64-0.25 μM, determined visually, 16 h) [µM] | MIC E. coli ATCC 8739 (E. coli ATCC 8739; repeat 1, 64-0.25 μM) [µM] | MBC E. coli ATCC 8739 (E. coli ATCC 8739; [1]) | MIC E. coli ATCC 8739 (E. coli ATCC 8739; repeat 2, 32-0.016 μM) [µM] | MBC E. coli ATCC 8739 (E. coli ATCC 8739; [3]) [µM] | MBC E. coli ATCC 8739 (E. coli ATCC 8739; ATCC 8739, 16 h) [µM] | MBC P. aeruginosa ATCC 9027 (P. aeruginosa ATCC 9027; ATCC 9027, 16 h) [µM]
1 | GWWKRVFKPVEKLGQRVRDAGIQGLEIAQQGANVLATVRGGPPQQ-NH2 [Hill-Cec9] | 1.00 | static | 2.00 | 2.00 | > 64.00 | > 32.00 | – | – | – | – | – | – | –
2 | GWWKRVFKPVERLGQRVRDAGIQGLQIAQQGANVLATVRGGPPQQ-NH2 [Hill-Cec4] | – | 16.00 µM | 2.00 | 2.00 | > 64.00 | > 32.00 | 1.00 | 1.00 | static | 2.00 | 2.00 | – | –
3 | KSWWKKVFKPVERAGQRIRDASIKGLAVAQQGANVLSTIRGGPPVVAPPPQV-NH2 [Hill-Cec13] | 1.00 | 64.00 µM | 2.00 | 2.00 | > 64.00 | > 32.00 | – | – | – | – | – | – | –
4 | RSLWKKLFKPVERAGQRIRDATIKGIVIAQQGANVLATIRGGPAIPPGQ-NH2 [Hill-Cec12] | 1.00 | static | 2.00 | 8.00 | > 64.00 | > 32.00 | – | 0.25 | – | 2.00 | 8.00 | 1.00 | –
5 | SWFKKVFKPVEKVGQRVRDAGIQGVAIAQQGANVLATARGGPPH-NH2 [Hill-Cec5] | – | – | – | – | – | – | – | – | – | – | – | 0.50 | 32.00
